Laboratory results: PMC4919791, “Effect of curcumin analogs onα-synuclein aggregation and cytotoxicity” (Scientific Reports, 2016)
Entries after “also recorded” stand apart in the source; their conditions may differ.

Experiments:
α-Syn fibrils [1] = target: T1, α-Syn fibrils (Homo sapiens, UniProt P37840); test: Binding affinity to α-Syn fibrils by curcumin analog fluorescence
T1 construct: made in house; host or cells: Escherichia coli BL21
Experimental: To estimate the comparative binding affinity of curcumin analogs to the α-Syn fibrils and oligomers, curcumin fluorescence assay was performed for each analog. For binding study with fibrils, 10 μM of α-Syn fibrils were incubated in presence of varying concentration of curcumin and its analogs (0.25 μM to 30 μM) for 30 min at RT in dark and then fluorescence spectra were recorded. The normalized fluorescence intensity of different concentrations of curcumin/analogs at their corresponding λmax was plotted to obtain their respective saturation plots (Figs 6A and S7). From the saturation plot, dissociation constant (Kd) was calculated (see method section).
The binding of curcumin/analogs to α-Syn fibrils were determined based on change in fluorescence intensity. For this study, 10 μM α-Syn fibrils were incubated in presence and absence of varying concentration of curcumin/analogs (0.25 μM to 30 μM) for 30 min at RT in dark. Immediately after incubation, fluorescence study was performed (for the excitation and emission ranges for each compounds, see Fig. S1). Experiments were performed using FluoroMax-4 spectrofluorometer (HORIBA JobinYvon) with excitation and emission slit widths of 5 nm. The maximum fluorescence intensity for curcumin/analogs was normalized with respect to that of the lowest concentration of each analog. The normalized fluorescence intensity was plotted against increasing concentration of curcumin/analogs and the dissociation constant was determined using the equation
where, “ΔF” is the change in the fluorescence intensity of curcumin/analogs, “ΔFmax” is the change in the fluorescence intensity at saturation point and “L”is the concentration of curcumin/analogs. The data were analyzed in Graphpad Prism software according to established method as used previously. Similarly, the dissociation constant of curcumin and its analogs with preformed α-Syn oligomers and monomers (obtained from SEC) were also determined.

preformed α-Syn fibrils = target: T2, preformed α-Syn fibrils (Homo sapiens, UniProt P37840); test: LDH cytotoxicity assay of preformed α-Syn fibrils incubated with curcumin analogs; type: cell-based; conditions: fibrils incubated with analog 48 h; SH-SY5Y cells
T2 construct: made in house; host or cells: Escherichia coli BL21
Experimental: The concentration of the fibrils was determined by subtraction of supernatant concentration from the original concentration of α-Syn kept for fibrillation.
The percent LDH release was plotted as difference in the absorbance value of 490 nm and 690 nm, considering 100% release for the TritonX-100 treated cells.

[2] = target: T3, preformed α-Syn amyloid fibrils (Homo sapiens, UniProt P37840); test: TEM of preformed α-Syn fibrils with analogs; type: biochemical; conditions: after 48 h incubation with analog
T3 construct: made in house; host or cells: Escherichia coli BL21
Experimental: The samples were then washed thrice with autoclaved MQ. The samples were then stained with 10 μl of uranyl formate 1% (w/v) and incubated in dark for 10 min. The EM image of each sample was acquired at 120 kV with magnifications in the range of 26,000X and 43,000X using a transmission electron microscope (TECNAI12 D312 FEI, Netherlands).

α-Syn = target: T4, α-Syn (Homo sapiens, UniProt P37840); test: α-Syn aggregation kinetics by compound fluorescence; type: biochemical; conditions: in presence of analog
T4 construct: made in house; host or cells: Escherichia coli BL21
Experimental: ThT fluorescence was used to monitor the aggregation kinetics of α-Syn only as a control.
Subsequently, we examined the effect of these analogs on α-Syn oligomerization by time dependent static light scattering experiment. […] After aggregation, TEM study was done to determine the effects of these analogs on the morphology of the resultant aggregates.
The α-Syn amyloid aggregation was started with LMW α-Syn of concentration ~300 μM in 1.5 ml microfuge tube in 20 mM MES buffer, pH 6.0, with 0.01% NaN3. […] The microfuge tubes with protein solutions were placed into Echo-Therm model RT11 vertical rotor (Torrey Pines Scientific, USA) with a speed of 50 rpm, at 37 °C inside an incubator.
The experiments were performed in FluoroMax-4 spectrofluorometer (HORIBA JobinYvon) with excitation and emission slit widths of 5 nm. Fluorescence was done in 20 mM MES buffer (pH 6.0, 0.01% NaN3).

α-Syn oligomers [3] = target: T5, α-Syn oligomers (Homo sapiens, UniProt P37840); test: LDH cytotoxicity assay of α-Syn oligomers with C1/C6; type: cell-based; conditions: oligomers incubated 30 minutes with compound; SH-SY5Y cells
T5 construct: made in house; host or cells: Escherichia coli BL21
Description: (§1) It has been shown that α-Syn mutants that form oligomers preferentially are more toxic and kill dopaminergic neurons in animal models as compared to fibril forming mutants. Therefore, compounds that effectively reduce the toxicity of oligomers could be beneficial for the treatment of PD. In the present study, we tested the effect of curcumin and its analogs on the toxicity, hydrophobic exposure and morphology of α-Syn oligomers isolated using size exclusion chromatography (SEC). The toxicity of α-Syn oligomers in presence and absence of curcumin/analogs were initially tested using MTT assay. […] To further validate the effectiveness of C6 to reduce the cytotoxicity of α-Syn oligomers, we also performed LDH cytotoxicity assay and Calcein-AM/Ethidium homodimer-1 staining. […] As previously it has been proposed that curcumin reduces the oligomers toxicity by altering their exposed hydrophobic surface, we also measured the hydrophobic surface exposure of preformed α-Syn oligomers incubated with curcumin and its analogs.
10 μM of α-Syn oligomers/fibrils incubated with and without 5 μM curcumin/analogs were added to SH-SY5Y cells (10,000 cells/well) in 96 well plate. […] The percent LDH release was plotted as difference in the absorbance value of 490 nm and 690 nm, considering 100% release for the TritonX-100 treated cells.

α-Syn oligomers [4] = target: T5, α-Syn oligomers; test: TEM of α-Syn oligomers with C1/C6; type: biochemical
Description: as §1
5 μl of various species of α-Syn (50 μM) incubated in absence and presence of curcumin and its analogs were spotted on carbon coated formavar grid and air dried for 10 min. The samples were then washed thrice with autoclaved MQ. The samples were then stained with 10 μl of uranyl formate 1% (w/v) and incubated in dark for 10 min. […]

α-Syn fibrils [5] = target: T1, α-Syn fibrils; test: MTT assay of α-Syn fibrils formed in presence of curcumin analogs; type: cell-based; conditions: 10 μM α-Syn fibril, 36 h, SH-SY5Y
Experimental: Next, we measured the effect of α-Syn fibrils formed in presence and absence of curcumin analogs on the viability of SH-SY5Y neuronal cell line by MTT reduction assay. SH-SY5Y cells were incubated with 10 μM α-Syn fibril formed in presence of various curcumin analogs for 36 h. […] However, the extent of decrease in toxicity was different for different analogs. […] The calcein-AM/ethidium homodimer-1 staining also further corroborated the results obtained from MTT and LDH assay (Fig. 8C).

Kd (α-Syn fibrils [1]; 10 μM fibrils, 0.25–30 μM analog, 30 min RT, read-out: dissociation constant (Kd) for α-Syn fibrils): 482 ± 70 nM | binding with preformed α-Syn fibrils (α-Syn fibrils [1]; compound fluorescence): highest binding | fibril morphology/thickness of preformed α-Syn fibrils (TEM, words) [2]: clustering was more | lag time of α-Syn aggregation (α-Syn; compound fluorescence, MES pH 6.0): 3.5 ± 0.5 h | morphology of α-Syn oligomers (TEM) (α-Syn oligomers [4]): significantly altered their morphology
Structure (SMILES): COc1cc(/C=C/C(=O)CC(=O)/C=C/c2ccc(OCc3ccccc3)c(OC)c2)ccc1OCc1ccccc1 [C6]
effect on cell death by preformed α-Syn fibrils, LDH (preformed α-Syn fibrils): decrease in cell death | effect on rate/kinetics of α-Syn aggregation (α-Syn): fastest; also recorded: significantly accelerated α-Syn aggregation kinetics | LDH release with α-Syn oligomers (α-Syn oligomers [3]): reduced LDH release | toxicity of α-Syn fibrils formed in presence of analog, MTT (α-Syn fibrils [5]): maximum cell viability; also recorded: less toxicity to cells
